What was measured:
[1] = test system: Olfr544; assay: mtDNA and mitochondrial density in Scr siRNA normal and Olfr544 knockdown C2C12 cells; assay type: cell-based, murine
Experimental: (§1) The differentiated skeletal muscle cells, C2C12 cells, were transfected with 200 pmol of scramble (control) or Olfr544 siRNA duplex (Santa Cruz, USA) using the Lipofectamine 2000 reagent (Invitrogen, USA) for 6 hours. Subsequently, another transfection was performed for 10 to 12 hours. The transfected cells were used for RNA or protein extraction.
(§2) The differentiated C2C12 cells were treated with azelaic acid, treated with 300 μL of a lysis buffer (20 mM EDTA, 100 mM Tris, 200 mM NaCl, 0.2% Triton X-100, 100 μg/mL) per well, and cultured at 37° C. for 90 minutes, and the extracted supernatant was treated with the same amount of isopropanol and 25 μL of a 4M NaCl solution. After storage at −20° C. overnight, distilled water (D.W.) was added to a pellet obtained by centrifugation (14,000 rpm, RT, 20 min), thereby extracting mtDNA. Afterward, 2 μl of DNA, 10 μl of the SYBR green PCR master mix, 0.5 μL of each of a forward primer and a reverse primer having a concentration of 10 pmol, and 6.6 μL of sterile distilled water were mixed, and qPCR was performed using the Thunderbird TMSYBR® qPCR Mix reagent (Takara Bio Inc., Japan). A gene expression level was analyzed using the iQ5 Cycler System (Bio-Rad, USA).
The change in mitochondrial DNA content and abundance were determined using MitoTracker. Olfr544 siRNA-transfected cells were treated with an azelaic acid at a concentration of 50 μM for 24 hours, and then washed with PBS. Afterward, a medium containing 200 nM of the MitoTracker green probe was added to the cells, and the cells were cultured for 30 minutes. The mitochondrial density was measured by quantifying wavelengths of a part binding to the tracker, which absorbs a wavelength at 490 nm and emits a wavelength at 516 nm, using SpectraMax. The images were obtained by the Zeiss LSM700 confocal microscope, and then analyzed using the Zeiss LSM700 version 3.2 software (Carl Zeiss, Germany)

[2] = test system: Hepa1c1c-7 cells; assay: MTT assay, cytotoxicity of azelaic acid; assay type: cell-based; details: 0 to 500 μM, 24 hours, compared to the control group
Experimental: To evaluate cytotoxicity of an azelaic acid, an MTT assay was performed. The MTT assay is a test method utilizing the ability of mitochondria to reduce MTT tetrazolium, which is a yellow water-soluble substrate, to non-water-soluble MTT formazan showing a blue-violet color by a dehydrogenase. The MTT reagent was prepared by being diluted in phosphate buffered saline (PBS) at a concentration of 2 to 5 mg/mL. Hepalcic-7 cells used in this experiment were purchased from the Korean Cell Line Bank, and cultured in a minimum essential medium Eagle alpha modification medium (MEM-alpha, Hyclone) supplemented with 10% FBS and 1% PEST. For this experiment, the Hepa1c1c-7 cells (4×10^4 cell/mL) were seeded into a 96-well plate and incubated at 37° C. under 5% CO2 for 24 hours, and then incubated for 24 hours by adding an azelaic acid in a concentration range of 0 to 500 μM. Afterward, each sample was treated with 100 μL of the MTT reagent (4 mg/mL), incubated at 37° C. under 5% CO2 for 4 hours and treated with 100 μL of dimethyl sulfoxide (DMSO), followed by measuring absorbance at 540 nm. Since the absorbance level is proportional to a cell count, a cell death effect caused by toxicity may be quantified.

[3] = test system: Olfr544; assay: PGC-1α expression in Scr siRNA normal and Olfr544 knockdown C2C12 cells; assay type: cell-based, murine; details: 50 μM
Experimental: as §1
qPCR was performed to synthesize cDNA using RNA extracted from cells grown in a culture medium and then treated with 300 μL of the RNAiso plus reagent per well. Subsequently, the synthesized cDNA was subjected to qPCR using the Thunderbird TMSYBR® qPCR Mix reagent (Takara Bio Inc., Japan). A gene expression level was analyzed using the iQ5 Cycler System (Bio-Rad, USA).
(§3) Protein extraction was performed using an RIPA buffer (10 mM Tris-HCl, pH 7.5, 1% NP-40, 0.1% sodium deoxycholate, 0.1% SDS, 150 mM NaCl, and 1 mM EDTA), a Halt™ protease and a phosphatase inhibitor reagent (Thermo, USA). As primary antibodies, anti-α-tubulin (1:1000) and anti-PGC-1α (1:500; Santa Cruz Biotechnology, Santa Cruz, USA) were used. The resulting immunoblotting image was analyzed using the ChemiDoc™ touch imaging system and Image Lab 5.2 software (Bio-Rad, PA, USA).

[4] = test system: muscle tissue of mice; assay: Intraperitoneal injection to normal and Olfr544 knockout mice, muscle tissue protein expression; assay type: in vivo, mouse; details: intraperitoneal 100 mg/kg; for pERK/ERK protein expression increase in muscle: compared with control
Source text: FIG. 7A to FIG. 7E are diagrams showing mechanisms of promoting mitochondrial biogenesis according to Olfr544 activity of an azelaic acid in mice (FIG. 7A: the images showing pCREB, CREB, PGC-1α, ERK1/2, pERK1/2 and LC3 proteins expression, FIG. 7B: analysis for pCREB and CREB protein expression levels, FIG. 7C: analysis for PGC-1α protein expression per an azelaic acid treatment time, FIG. 7D: analysis for pERK and ERK protein expression levels, and FIG. 7E: analysis for LC3 protein expression per an azelaic acid treatment time in muscle tissue extracted 30 and 120 minutes after an azelaic acid is intraperitoneally injected into normal mice and Olfr544 KO mice).
(§4) 8-week-old ICR male […] and C57BL/6J were purchased from Samtako (Gyeonggi-do, Seoul), and Olfr544 knockout mice from which exon 2 (161-428 bp) of an Olfr544 gene was removed using a CRISPR-Cas9 system were purchased from Macrogen (Seoul, Korea). All animal experiments were carried out in accordance with the experimental method (Protocol No. KUIACUC-2016-97) approved by the Animal Experiment Ethics Committee at Korea University. In the breeding environment, a 12-hour light cycle, a room temperature of 25 to 31° C., and relative humidity of […] were maintained. The mice were freely fed a 60% high-fat diet, and randomly divided into 4 groups (n=7, two groups for normal mice, and the other two groups for knockout (KO) mice). For exact Olfr544 activation, the mice were fasted overnight, and then intraperitoneally injected with an azelaic acid (100 mg/kg of body weight). For a control, the same amount of PBS was intraperitoneally injected. In an experiment for long-term administration of an azelaic acid, the azelaic acid was orally administered at a dose of 100 mg/kg of body weight. During the last week of the experimental period (6 weeks), the mice fasted for 16 hours were anesthetized and sacrificed. The collected muscle tissue was put into a freezing tube, immediately put into liquid nitrogen, and then stored at −80° C.

[5] = test system: C2C12 cells; assay: mtDNA level and mitochondrial density (MitoTracker) in differentiated C2C12 cells; assay type: cell-based, murine
Experimental: (§5) Murine skeletal muscle cells, C2C12 cells, were purchased from the Korean Cell Line Bank. The cells were cultured using a Dulbecco's modified Eagle's medium (DMEM) supplemented with 20% fetal bovine serum (FBS; HyClone, USA) and 1% antibiotics (penicillin/streptomycin). When the cells reached 50% confluency (the degree of proliferation) under 5% CO2 (v/v) at 37° C., the cells were subcultured and maintained.
(§6) To differentiate the cells, the medium was replaced with DMEM containing 2% horse serum (HyClone), and after 7 days of differentiation, the cells were used in the experiment.
C2C12 cells differentiated for 7 days as described in Example 2-1 were treated with 12.5, 25 or 50 μM of an azelaic acid. After 24 hours, RNA and proteins were extracted according to the following method, and used in the experiment. For a control, instead of an azelaic acid, the same amount of DMSO was treated.
After treatment with azelaic acid, the change in mitochondrial density was detected using MitoTracker. C2C12 cells were treated with an azelaic acid for 24 hours, and then washed with PBS. Subsequently, a medium containing […] of MitoTracker, i.e., a green probe, was added thereto, and the cells were cultured for 30 minutes. The mitochondrial density was measured by quantifying wavelengths of a part binding to the tracker, which absorbs a wavelength at 490 nm and emits a wavelength at 516 nm, using SpectraMax. Image analysis was performed using a confocal microscope and Zeiss LSM700 version 3.2 software (Carl Zeiss, Germany).
The differentiated C2C12 cells were treated with azelaic acid, treated with 300 μL of a lysis buffer (20 mM EDTA, 100 mM Tris, 200 mM NaCl, 0.2% Triton X-100, 100 μg/mL) per well, and cultured at 37° C. for 90 minutes, and the extracted supernatant was treated with the same amount of isopropanol and 25 μL of a 4M NaCl solution. After storage at −20° C. overnight, distilled water (D.W.) was added to a pellet obtained by centrifugation (14,000 rpm, RT, 20 min), thereby extracting mtDNA. […] A gene expression level was analyzed using the iQ5 Cycler System (Bio-Rad, USA).

[6] = test system: muscle tissue of HFD-induced obese mice; assay: Oral administration for 6 weeks to HFD-induced obese normal and Olfr544 knockout mice, muscle tissue qPCR and mtDNA; assay type: in vivo, mouse; details: oral 100 mg/kg
Experimental: as §4
cDNA was synthesized using RNA extracted by adding the RNAiso plus reagent to murine muscle cells. Subsequently, the synthesized cDNA was subjected to qPCR using the Thunderbird TMSYBR® qPCR Mix reagent (Takara Bio Inc., Japan). A gene expression level was analyzed using the iQ5 Cycler System (Bio-Rad, USA).
as §2, with “Murine muscle” for “The differentiated C2C12”, “with” for “with azelaic acid, treated with 300 μL of”, “μg/mL),” for “μg/mL) per well,”

[7] = test system: PGC-1α; assay: PGC-1α gene and protein expression in differentiated C2C12 cells (qPCR, immunoblotting); assay type: cell-based, murine; details: 50 μM, 24 hours, compared to DMSO control
Experimental: as §5, §6
C2C12 cells differentiated for 7 days as described in Example 2-1 were treated with 12.5, 25 or 50 μM of an azelaic acid. […]
qPCR was performed to synthesize cDNA using RNA extracted from cells grown in a culture medium and then treated with 300 μL of the RNAiso plus reagent per well. […] A gene expression level was analyzed using the iQ5 Cycler System (Bio-Rad, USA).
Protein extraction was performed using an RIPA buffer (10 mM Tris-HCl, pH 7.5, 1% NP-40, 0.1% sodium deoxycholate, 0.1% SDS, 150 mM NaCl, and 1 mM EDTA), a Halt™ protease and a phosphatase inhibitor reagent (Thermo, USA). […] The resulting immunoblotting image was analyzed using the ChemiDoc™ touch imaging system and Image Lab 5.2 software (Bio-Rad, PA, USA).

[8] = test system: Olfr544; assay: Immunoblotting of pCREB, pERK1/2 and LC3II/LC3I in normal and Olfr544 knockdown C2C12 cells; assay type: cell-based, murine
Experimental: The differentiated skeletal muscle cells, C2C12 cells, were transfected with 200 pmol of scramble (control) or Olfr544 siRNA (Santa Cruz, USA) using the Lipofectamine 2000 reagent (Invitrogen, USA) for 6 hours. Subsequently, one more transfection was performed for 10 to 12 hours. After 24 hours, the transfected cells were treated with an azelaic acid and used for protein extraction.
as §3, with “antibodies, anti-CREB (1:250), anti-p-CREB (Ser133; 1:500), anti-β-actin (1:1000),” for “antibodies,”, “(1:1000), anti-ERK1/2 (1:500), anti-p-ERK1/2 (Thr53,54, 1:500),” for “(1:1000)”, “used. In addition, anti-LC3B (1:500) was purchased from Novus Biologicals (Novus Biologicals, USA).” for “used.”

[9] = Olfr544 knockdown C2C12 cells, 50 μM, 24 hours
[10] = Scr siRNA-transfected normal C2C12 cells
[11] = normal mice, 30 minutes after injection
[12] = normal mice, 120 minutes after injection

O=C(O)CCCCCCCC(=O)O [azelaic acid, nonanedioic acid]
mitochondrial density (quantification) ([1]; C2C12 normal cells, azelaic acid (50 µM)): enrichment of mitochondria
mitochondrial density change [1, 9]: no changes
mtDNA change [1, 9]: no changes
mtDNA increase ([1]; azelaic acid-treated normal C2C12 cells, 50 μM, 24 hours): about 1.6 fold
toxicity (cell viability, MTT assay) [2]: toxicity was not observed at any concentration
PGC-1α mRNA level ([3]; Olfr544 knockdown C2C12 cells): this effect is not shown
PGC-1α protein level ([3]; Olfr544 knockdown C2C12 cells): this effect is not shown
PGC-1α mRNA level [3, 10]: significantly increases
PGC-1α protein level [3, 10]: significantly increases
LC3II/LC3I protein expression in muscle ([4]; Olfr544 knockout mice): no change
pERK/ERK protein expression in muscle ([4]; Olfr544 knockout mice): no change
LC3II/LC3I protein expression increase in muscle [4, 11]: 1.5 fold
pERK/ERK protein expression increase in muscle [4, 11]: 2.5 fold
LC3II/LC3I protein expression in muscle [4, 12]: not changed
pERK/ERK protein expression increase in muscle [4, 12]: 2.8 fold
mitochondrial density (MitoTracker quantification) ([5]; 50 μM, 24 hours): significantly increased
mtDNA level, increase over control ([5]; 50 μM, 24 hours): about 2.5 fold
mitochondrial density, MitoTracker images under confocal fluorescence microscopy ([5]; treated group compared to control group): substantial increases
PGC-1α mRNA expression in muscle ([6]; Olfr544 knockout HFD mice): no changes
Tfa gene expression in muscle ([6]; Olfr544 knockout HFD mice): no change
mt DNAs in muscle ([6]; Olfr544 knockout HFD mice): no change
Tfa gene expression increase in muscle ([6]; normal HFD mice): about 3.3 fold
PGC-1α mRNA expression increase in muscle ([6]; normal HFD mice, compared to control group): about 1.9 fold
mt DNAs in muscle ([6]; normal HFD mice, compared to non-administered mice): increased
PGC-1α gene expression [7]: increased
PGC-1α protein expression [7]: increased
LC3II/LC3I protein expression ([8]; Olfr544 knockdown C2C12 cells): this effect disappeared
pCREB expression change ([8]; Olfr544 knockdown C2C12 cells): no change
pCREB expression increase ([8]; normal (Scr siRNA) C2C12 cells): about 2 fold
LC3II/LC3I protein expression increase ([8]; normal C2C12 cells, compared to the control group): about 3 fold
phosphorylated ERK1/2 protein expression increase ([8]; skeletal muscle cells (C2C12)): 1.5 fold

Reference: patent US11931330B2, “Composition for promoting skeletal muscle activity via induction of mitochondrial biogenesis comprising of azelaic acid as an active ingredient” (Korea University Research and Business Foundation, priority 2018, dated 2024)
